Experimental findings from patent US20160089464A1, “MALODOR REDUCTION COMPOSITIONS” (The Procter & Gamble Company, priority 2014, published 2016) are described below.

“Also recorded” adds a separate entry of the source.

The nature of one series: Comment Code material properties: vapor pressure, ClogP, probability of ingredient color instability, odor detection threshold, melamine formaldehyde PMC headspace response ratio and leakage, liquid dish neat product liquid-air partition coefficient. Type of series: physicochemical. The settings on record: Table 1 materials; each letter of the code is one property class (vapor pressure, ClogP, color instability, odor detection threshold, PMC headspace ratio, PMC leakage, liquid dish liquid-air partition coefficient).
As to `O=C1CCCCCCCCCCOCCCCO1` [Material 562], the “Comment Code” value is recorded as “DGJ”. Turning to `CC(=O)c1cc(C(C)(C)C)cc2c1CCC2(C)C` [Material 563], the “Comment Code” value is reported as “DEFHJK”.

On to `COC1(C)CCC23CC1C(C)(C)C2CCC3C` (stereo not shown) [Material 565], for which the “Comment Code” value was “ADEFHJK”. In the case of `CC1CCC2C(C)(C)C3CC12CCC3(C)OC=O` (stereo not shown) [Material 566], the “Comment Code” value is given as “BDEFHJK”.

`CC(=O)O[C@]1(C)CC[C@@]23C[C@@H]1C(C)(C)[C@@H]2CC[C@H]3C` [Material 567]: the “Comment Code” value was “DEFHJK”. On the same count and under the same terms, under `CC1=CCCC2(C)OC2CCC(C)=CCC1` (stereo not shown) [Material 568] stands “DFHJK”.

As to `C[C@@H]1CC[C@H]2C(C)(C)[C@H]3C[C@@]12CC[C@@]3(C)O` [Material 569], the “Comment Code” value was “DEFHJK”. As for `CC1=CCC(C23CCCC(C)(C2)OC3)C1(C)C` (stereo not shown) [Material 570], the “Comment Code” value is given as “DEFHJK”. Take `CC1=CCC(C23CCCC(C)(C2)OC3)C1(C)C` (stereo not shown) [Material 571]: the “Comment Code” value is given as “DFHJ”. Same read-out and setting: the same measure for `CC1C(C)(C)C2=C(C(=O)CCC2)C1(C)C` (stereo not shown) [Material 572]: “BDEFHIJK”; for `CC(=O)OC12CCCC(C)(CCC3C1CC3(C)C)C2` (stereo not shown) [Material 573]: “DEFHJK”.

Still in this series, the particulars now being: cell strings several class symbols together; each letter is one property class of L1.
Take `CC1CCCCCCCCCCCCC(=O)C1` (stereo not shown) [Material 206]: the “Comment Code” value is “DEFGJK”. As for `CC=Cc1ccc(OCc2ccccc2)c(OC)c1` [Material 212], the “Comment Code” value is listed as “DFHJ”. Take `CC=Cc1ccc(OC(C)=O)c(OC)c1` [Material 213]: the “Comment Code” value was “CFHJK”. In the case of `CC=Cc1ccc(O)c(OC)c1` [Material 214], the “Comment Code” value is on record as “CEFHIK”. The same measure, in the same setting: under `CC(=O)[C@@]1(C)CC2=C(CCCC2(C)C)C[C@@H]1C` [Material 215] stands “DHJK”. For `CC(C)C(=O)OC1CC2CCC1(C)C2(C)C` (stereo not shown) [Material 229], the “Comment Code” value is on record as “BDEFHIJK”. On the same count and under the same terms, under `CC1C2CC(CC2C2CCC(O)CC2)C1(C)C` (stereo not shown) [Material 230] stands “DEFHJK”; under `CCCCCCCC(=O)OCCC(C)C` [Material 237], “DEFHJK”; under `CC(C)CCOC(=O)C(C)C` [Material 239], “ACEFGIJKL”. Still for that read-out and setting: the same measure for `CC1(C)C2=C(CO)CCC(C)(C)C23CCC1C3` (stereo not shown) [Material 248]: “DEFHJK; also recorded: BDEFHJK”. Still for that read-out and setting: the same measure for `O=C(O)CCc1ccccc1` [Material 255]: “CEFHIK”; for `CC1(C)CCc2ccc(CCC=O)cc21` [Material 260]: “DHJK”. `CCCCCCOC(=O)CC` [Material 264]: the “Comment Code” value is on record as “ADEFHIKL”. Still for that read-out and setting: under `CCCCCCOC(=O)CCC` [Material 270] stands “BDEFHJKL”. Turning to `CCCCCCOC(=O)C(C)CC` (stereo not shown) [Material 273], the “Comment Code” value is recorded as “BDEFHJKL”. With `CCCCCCOC(=O)c1ccco1` [Material 275], the “Comment Code” value was “DEFHJK”.

Regarding `CC(=O)OC1CC2CC1C1CC=CC21` (stereo not shown) [Material 281], the “Comment Code” value is reported as “CEFGJK”. As for `CCCCCCCO` [Material 282], the “Comment Code” value is “ACEFGIKL”.

`CCCCCCCOC(C)=O` [Material 283]: the “Comment Code” value was “ADEFHKL”.

Consider `CCCCCCC=O` [Material 284], for which the “Comment Code” value is listed as “ACHIKL”. Turning to `O=Cc1ccc2c(c1)OCO2` [Material 287], the “Comment Code” value was “BCGIK”. Turning to `CC(C)=CCCC(C)=CC#N` [Material 302], the “Comment Code” value is recorded as “BCEFHKL”. As to `CC(C)=CCC/C(C)=C/COC=O` [Material 306], the “Comment Code” value is listed as “BCEFHJK”. With `CCCCCCCC(=O)OC/C=C(\C)CCC=C(C)C` [Material 308], the “Comment Code” value is given as “DEFHJ”. Same read-out and setting: under `CC(C)=CCC/C(C)=C/COC(=O)c1ccccc1` [Material 310] stands “DFHJ”; under `CCC(C)C(=O)N(C)c1ccccc1` (stereo not shown) [Material 314], “BCEFHJK”; under `CC1=CCC(C(C)C)=CC1` [Material 319], “ADEFGIJKL”. As to `CC1=C2CC(C(C)(C)O)CCC2(C)CCC1` (stereo not shown) [Material 329], the “Comment Code” value is given as “DFHJK”. Take `CC1COCc2cc3c(cc21)C(C)(C)C(C)C3(C)C` (stereo not shown) [Material 335]: the “Comment Code” value is recorded as “DEFHJK”.

With `CCC(=O)OC1CC2C3C=CCC3C1C2(C)C` (stereo not shown) [Material 343], the “Comment Code” value is on record as “DEFHJK”. With `C/C=C1/CC2CC1C1CCC(=O)OC21` (stereo not shown) [Material 353], the “Comment Code” value is “CEFGJK”.

For the molecule `CCc1ccccc1CC(C)(C)C=O` [Material 354], the “Comment Code” value is “BDHJK”. On to `CCOC(=O)OC1CCCCC1C(C)(C)C` (stereo not shown) [Material 355], for which the “Comment Code” value is “BDFHJK”. Same read-out and setting: the same measure for `CC(O)C(C)/C=C1\C[C@H]2C[C@@H]1[C@@H]1C=CC[C@H]21` (stereo partly shown) [Material 359]: “DEFHJK”; for `CC(=O)OC1CC2C3C=CCC3C1C2(C)C` (stereo not shown) [Material 360]: “DEFHJK”; for `CCOC(=O)OC1CCCCC1C(C)(C)C` (stereo not shown) [Material 365]: “ACFHIKL”. In the case of `CC12CCC(C1)C(C)(C)C2O` (stereo not shown) [Material 366], the “Comment Code” value is on record as “ACGIJKL”. Consider `CC12CCC(CC1)C(C)(C)O2` [Material 376], for which the “Comment Code” value is reported as “ADEFGIJKL”.

As to `CC(=O)O.CCOc1cc(C=O)ccc1O` [Material 379], the “Comment Code” value is recorded as “CHJ”. In the case of `CCCCCCCC(=O)OCC` [Material 387], the “Comment Code” value is given as “BDEFHJKL”. Take `CCOC(=O)C=Cc1ccccc1` [Material 400]: the “Comment Code” value is listed as “BCEFHK”. Regarding `CCOC(=O)C(C)C1CCCCC1` (stereo not shown) [Material 412], the “Comment Code” value is given as “BDFHIJKL”. Same read-out and setting: under `C=C(C)C1CCC(C)C(=O)C1` (stereo not shown) [Material 419] stands “ACGIJKL”; under `CC1CCOC(c2ccccc2)C1` (stereo not shown) [Material 420], “BDEFHJK”; under `CCCCCC1=C(C)CCC1=O` [Material 438], “BCFHIJKL”. Turning to `CC1CC(=O)CC(C)(C)C1` (stereo not shown) [Material 439], the “Comment Code” value is given as “ACEFGIJKL”.

Take `CCCc1ccc(O)c(OC)c1` [Material 440]: the “Comment Code” value is on record as “CEFHIJK”. For `CC(=O)OC1CC2CC1C1CCCC21` (stereo not shown) [Material 441], the “Comment Code” value is “DEFHJKL”.

In the case of `O=C1CCc2ccccc2O1` [Material 442], the “Comment Code” value is on record as “BCGIKL”. In the case of `C=C(C)C1CCC(C)C(=O)C1` (stereo not shown) [Material 443], the “Comment Code” value is on record as “ACGIJKL”.

Turning to `CC(=O)OC(C)(C)C1CCC(C)CC1` (stereo not shown) [Material 447], the “Comment Code” value was “BDEFHIJKL”. `CC(=O)CCC1C(C)=CCCC1(C)C` (stereo not shown) [Material 448]: the “Comment Code” value is given as “BDHIJK”. On to `c1ccc(COCc2ccccc2)cc1` [Material 454], for which the “Comment Code” value was “DEFHJK”.

For `CCCCOC(=O)c1ccccc1C(=O)OCCCC` [Material 455], the “Comment Code” value is reported as “DEFHJ”. Still for that read-out and setting: under `CCCCCC1CCCC1=O` (stereo not shown) [Material 469] stands “BDFHIKL”; under `COC(=O)C1(C)CCC(C)CC1` (stereo not shown) [Material 477], “ADEFHIJKL”; under `CC(=O)OCCC1CCCCC1` [Material 481], “BDEFHJKL”. For `CCCC(=O)OC1CC2CC1C1CC=CC21` (stereo not shown) [Material 484], the “Comment Code” value is recorded as “DEFHJK”.

Take `CC(C)C(=O)OC1CC2CC1C1C=CCC21` (stereo not shown) [Material 487]: the “Comment Code” value was “DEFHJK”.

Take `C=CC1(C)Cc2occ(C)c2CC1C(=C)C` (stereo not shown) [Material 488]: the “Comment Code” value is “DHJK”. Still for that read-out and setting: under `C=CC(C)=CC=CC(=C)C` [Material 495] stands “ADEFGIKL”; under `CC(C)(O)CCC1CCCCC1` [Material 496], “BDEFGIJK”. Consider `O=C1CCCCCCC/C=C/CCCCCCC1` [Material 501], for which the “Comment Code” value was “DEFGJ”. Turning to `C=CC(C)(C#N)Cc1ccccc1` (stereo not shown) [Material 504], the “Comment Code” value is listed as “BDHJK”. Take `CC(C)=CCCC(C)CC#N` (stereo not shown) [Material 509]: the “Comment Code” value was “BCEFGIKL”.

Regarding `CC(C)=CCCC(C)CCOC(=O)Cc1ccccc1` (stereo not shown) [Material 510], the “Comment Code” value is listed as “DFHJ”.

On to `CC(C)=CCCC(C)CCOC=O` (stereo not shown) [Material 512], for which the “Comment Code” value was “BCEFGJKL”. As for `CC(C)=CCCC(C)CCOC(=O)c1ccccc1` (stereo not shown) [Material 515], the “Comment Code” value is “DFHJ”.

Consider `CC(C)=CCCC(C)CCO` (stereo not shown) [Material 517], for which the “Comment Code” value is on record as “BCHIJKL”. Still for that read-out and setting: under `CC(C)=CCCC(C)CC=O` (stereo not shown) [Material 518] stands “ACHIJKL”; under `CC1CCC2CC1C2(C)C` (stereo not shown) [Material 525], “ADEFGIJKL”; under `CC/C=C\CC1=C(C)CCC1=O` [Material 526], “BCHIJKL”.

For `C/C=C\c1ccc(O)c(OC)c1` [Material 528], the “Comment Code” value is “CEFHIK”. On the same count and under the same terms, the same measure for `CC/C=C\CCOC(=O)CCCC` [Material 535]: “BDEFHJKL”; for `C/C=C(\C)C(=O)OCC/C=C\CC` [Material 536]: “BDEFHJK”; for `CC/C=C\CCOC(=O)CC` [Material 538]: “ACEFHIKL”. In the case of `CC/C=C\CCOC(=O)CCC` [Material 540], the “Comment Code” value was “ADEFHJKL”. As for `CC/C=C\CCO` [Material 542], the “Comment Code” value is recorded as “ACEFHIKL”. Consider `CCC/C=C\CO` [Material 547], for which the “Comment Code” value is on record as “ACEFHIKL”. With `N#CC=Cc1ccccc1` [Material 549], the “Comment Code” value is “ACEFGIK”. On the same count and under the same terms, under `O=C/C=C/c1ccccc1` [Material 554] stands “ACHIK”; under `N#C/C=C/c1ccccc1` [Material 556], “ACEFGIK”; under `Cc1cc(O)cc(C)c1Cl` [Material 557], “BCHIJK”.

For `COC1(C)CCC23CC1C(C)(C)C2CCC3C` (stereo not shown) [Material 565], the “Comment Code” value was “BDEFHJK”. For the molecule `CC1CCC2C(C)(C)C3CC12CCC3(C)OC=O` (stereo not shown) [Material 566], the “Comment Code” value is recorded as “BDEFHJK”.

On to `CC(=O)O[C@]1(C)CC[C@@]23C[C@@H]1C(C)(C)[C@@H]2CC[C@H]3C` [Material 567], for which the “Comment Code” value is given as “DEFHJK”. Take `C[C@@H]1CC[C@H]2C(C)(C)[C@H]3C[C@@]12CC[C@@]3(C)O` [Material 569]: the “Comment Code” value is “DEFHJK”. For `CC1=CCC(C23CCCC(C)(C2)OC3)C1(C)C` (stereo not shown) [Material 570], the “Comment Code” value was “DEFHJK”. `CC(=O)OC12CCCC(C)(CCC3C1CC3(C)C)C2` (stereo not shown) [Material 573]: the “Comment Code” value was “DEFHJK”.
